“And” between values parts separate entries of the source, which are not always exact repeats. Equal entries are not always repeated. “Also recorded” adds a separate entry of the source. Where two headings read alike, the source gives them in different places. One block for each compound: values may come before it.
What was measured:
[1] = tested on: patients with PD and constipation; assay: Effect on bowel function, Phase 2 trial (Stage 1 single dose, Stage 2 daily dosing); type: in vivo, human
Procedure: Overview: The subjects of the trial all had PD and experienced constipation, which is a characteristic of PD. The primary objectives of the trial involving patients with PD and constipation were to evaluate the safety and pharmacokinetics of oral squalamine (ENT-01) and to identify the dose required to improve bowel function, which was used as a clinical endpoint.
ENT-01 is the phosphate salt of squalamine. For this study it has been formulated as a small 25 mg coated tablet. Dosing ranged from 25 mg to 250 mg, with dosages greater than 25 mg requiring multiple pills (e.g., 50 mg=two 25 mg pills). Dosing instructions=take 60 mins before breakfast with 8 oz. water. The dose was taken by each patient upon awakening on an empty stomach along with 8 oz. of water simultaneously to dopamine. The subject was not allowed to ingest any food for at least 60 minutes after study medication. The compound is highly charged and will adsorb to foodstuffs, so it was administered prior to feeding.
Following successful screening, all subjects underwent a 14-day run-in period where the degree of constipation was assessed through a validated daily log (Zinsmeister et al. 2013) establishing baseline CSBMs/week. Subjects with an average of <3 CSBMs/week proceeded to dosing.
(§1) Tolerability limits included diarrhea or vomiting.
(§2) In Stage 2, 34 patients were evaluated.
The primary efficacy outcome variable was whether or not a subject was a “success” or “failure”. This is an endpoint based on subject diary entries for the “fixed dose” period prior to the endpoint assessment defined as average complete stool frequency increase by 1 or more over baseline, or 3 or more complete spontaneous stools/week. The subject was deemed a “success” if s/he met one or more of the criteria listed above, otherwise the subject was deemed a “failure”. The primary analysis was based on all subjects with a baseline assessment and an assessment at the end of the “fixed-dose” period and was a comparison of the proportion of successes with 0.10 (the null hypothesis corresponding to no treatment effect).

[2] = tested on: patients with PD and constipation; assay: Safety and adverse event profile, Phase 2 trial; type: in vivo, human
Procedure: as §1, §2

[3] = Pharmacokinetics of orally administered squalamine (ENT-01), Phase 2 trial; type: in vivo, human; settings: for oral bio-availability (estimated): based on pharmacokinetic behavior of intravenously administered squalamine in prior clinical studies; for systemic absorption following oral administration: this study, PD patients
Procedure: PK data were collected on the 10 patients enrolled in Stage 1 and 10 patients enrolled in Stage 2 to determine the extent of systemic absorption. In Stage 1, PK data were obtained at each visit, pre-medication, at 1, 2, 4, 8 and 24 hours (Table 10). In Stage 2, PK was measured on days 1 and 6 of the randomization period pre-medication, at 1, 2, 4 and 8 hours (Table 11).
The mean Cmax, Tmax and T1/2 and AUC of the squalamine ion following squalamine (ENT-01) oral dosing for Stage 1 patients. The PK analyses are only approximate, as the lower limit of the validated concentration range was 10 ng/ml; most of the measured concentrations fell below that value. The mean Cmax, Tmax and T1/2 and AUC of the squalamine ion following squalamine (ENT-01) oral dosing for Stage 2 patients. The PK analyses are only approximate, as the lower limit of the validated concentration range was 0.5 ng/ml.

[4] = tested on: patients with PD and constipation; assay: CNS symptoms in Stage 2 (UPDRS, MMSE, PDHQ, BDI-II, hallucinations); type: in vivo, human; settings: 6 patients with hallucinations (5) or delusions (1) at baseline
Description: (8) Beck Depression Inventory (BDI-II);
(9) Unified Parkinson's Disease Rating Scale (UPDRS), which consists of 42 items in four subscales (Part I=Non-Motor Aspects of Experiences of Daily Living (nM-EDL) (1.1 cognitive impairment, 1.2 hallucinations and psychosis, 1.3 depressed mood, Part II=Motor Aspects of Experiences of Daily Living (M-EDL), Part III=Motor Examination, and Part IV=Motor Complications;
(10) Mini Mental State Examination (MMSE);
(12) The University of Miami Parkinson's Disease Hallucinations Questionnaire (UM-PDHQ); […]
Assessments were made at baseline and at the end of the fixed dose and washout periods. Circadian system status was evaluated by continuously monitoring wrist skin temperature (Thermochron iButton DS1921H; Maxim, Dallas) following published procedures (Sarabia et al. 2008). […]

[5] = tested on: patients with PD and constipation; assay: Sleep diary (total sleep time, REM-behavior disorder); type: in vivo, human; settings: beyond 125 mg
Procedure: FIG. 3 is a chart of total sleep time in relation to squalamine dose. Total sleep time was obtained from the sleep diary by subtracting awake time during the night from total time spent in bed. Total sleep time per night was logged for each patient at baseline, each dosing period and at washout, and the means were determined. The light grey bar represents the baseline value for each cohort at a given dose level and the dark grey bar represents the value for the same cohort at the stated dose of squalamine (ENT-01). The number of patients represented at each value are: Baseline, 33; 75 mg, 21; 100 mg, 28; 125 mg, 18; 150 mg, 15; 175 mg, 12; 200 mg, 7; 225 mg, 3; 250 mg, 2; washout, 33. P values were as follows: 75 mg, p=0.4; 100 mg, p=0.1; 125 mg, p=0.3; 150 mg, p=0.07; 175 mg, p=0.03; 200 mg, p=0.3; 225 mg, p=0.5; 250 mg, p=0.3; wash-out, p=0.04 (paired t test).
(5) Sleep Diary (participants completed a sleep diary on a daily basis throughout the study. The diaries included time into bed and estimated time to sleep as well as wake time and duration during the night); […]

[6] = tested on: patients with PD and constipation; assay: Circadian rhythm of wrist skin temperature; type: in vivo, human; settings: for effect on circadian rhythm of skin temperature: oral administration, 12 patients with evaluable data
Procedure: (6) I-Button Temperature Assessment. The I-Button is a small, rugged self-sufficient system that measures temperature and records the results in a protected memory section. The Thermochron I-Button DS1921H (Maxim Integrated, Dallas, Tex.) was used for skin temperature measurement. I-Buttons were programmed to sample every 10 mins., and attached to a double-sided cotton sport wrist band using Velcro, with the sensor face of the I-Button placed over the inside of the wrist, on the radial artery of the dominant hand. Subjects removed and replaced the data logger when necessary (i.e., to have a bath or shower). The value of skin temperature assessment in sleep research is that the endogenous skin warming resulting from increased skin blood flow is functionally linked to sleep propensity. From the collected data, the mesor, amplitude, acrophase (time of peak temperature), Rayleight test (an index of interdaily stability), mean waveforms are calculated);
Assessments were made at baseline and at the end of the fixed dose and washout periods. Circadian system status was evaluated by continuously monitoring wrist skin temperature (Thermochron iButton DS1921H; Maxim, Dallas) following published procedures (Sarabia et al. 2008).
Circadian rhythm of skin temperature was evaluable in 12 patients (i.e., those who had recordings that extended from baseline through washout). Circadian system functionality was evaluated by continuously monitoring wrist skin temperature using a temperature sensor (Thermochron iButton DS1921H; Maxim, Dallas, Tex.) (Sarabia et al. 2008). A nonparametric analysis was performed for each participant to characterize DST as previously described (Sarabia et al. 2008; Ortiz-Tudela et al. 2010).
Briefly, this analysis includes the following parameters: (i) the inter-daily stability (the constancy of 24-hour rhythmic pattern over days, IS); (ii) intra-daily variability (rhythm fragmentation, IV); (iii) average of 10-minute intervals for the 10 hours with the minimum temperature (L10); (iv) average of 10-minute intervals for the 5 hours with the maximum temperature (M5) and the relative amplitude (RA), which was determined by the difference between M5 and L10, divided by the sum of both. Finally, the Circadian Function Index (CFI) was calculated by integrating IS, IV, and RA. Consequently, CFI is a global measure that oscillates between 0 for the absence of circadian rhythmicity and 1 for a robust circadian rhythm (Ortiz-Tudela et al. 2010).

[7] = rats, prior studies; cited from earlier work
[8] = dogs, prior studies; cited from earlier work
[9] = mice, prior studies; cited from earlier work
mouse models of PD = settings: orally administered, mice with constipation due to overexpression of human αS (West et al, manuscript in preparation); cited from earlier work
[10] = tested on: IPANs (intrinsic primary afferent neuron); settings: isolated bowel segment, PD mouse model; increasing frequency of propulsive peristaltic contractions; cited from earlier work
[11] = prior studies; systemic blood levels one thousand-fold greater than oral; cited from earlier work
[12] = Stage 2, fixed dose, n = 34, weekly average
[13] = Stage 2, fixed dose, n = 34, weekly average, listed as aminosterol

oral bio-availability (estimated) [3]: less than 0.3% | oral bio-availability (estimated) ([3]; listed as aminosterol): < 0.3% | systemic absorption following oral administration ([3]; listed as aminosterol): negligible
SMILES: CC(C)[C@@H](CC[C@@H](C)[C@H]1CC[C@H]2[C@@H]3[C@H](O)C[C@H]4C[C@@H](NCCCNCCCCN)CC[C@]4(C)[C@H]3CC[C@]12C)OS(=O)(=O)O (single isomer, unassigned) [squalamine (ENT-01), squalamine]
CSBM (mean, SD) [1, 12]: 3.8 CSBM/week and 3.8 (2.4) CSBM/week | Suppository use / rescue medication (mean, SD) [1, 12]: 0.3 /week and 0.3 (0.67) /week | CSBM (mean, SD) [1, 13]: 3.8 CSBM/week | SBM (mean, SD) [1, 13]: 4.5 | Suppository use / rescue medication (mean, SD) [1, 13]: 0.3 /week | prokinetic dose (mean) ([1]; patients with baseline ≥1 CSBM/week): 120 mg | Diarrhea, Mild ([2]; Stage 2 (34 dosed)): 12 (35)^ n, % | Difficulty falling asleep, Mild ([2]; Stage 2 (34 dosed)): 1 (3)^ n, % | Eye infection, Mild ([2]; Stage 2 (34 dosed)): 1 (3)^ n, % | Flatulence, Mild ([2]; Stage 2 (34 dosed)): 1 (3)^ n, % | Nausea, Mild ([2]; Stage 2 (34 dosed)): 18 (52)^ n, % | Urinary retention, Mild ([2]; Stage 2 (34 dosed)): 1 (3)^ n, % | Urinary tract infection, Mild ([2]; Stage 2 (34 dosed)): 1 (3)^ n, % | Worsening hemorrhoid, Mild ([2]; Stage 2 (34 dosed)): 1 (3)^ n, % | patients with worsening of hemorrhoids ([2]; all dosed, 1/44): 2.2% | patients with worsening of acid reflux ([2]; all dosed, 2/44): 4.5% | patients with flatulence ([2]; all dosed, 3/44): 6.8% | patients with vomiting ([2]; all dosed, 3/44): 6.8% | patients with dizziness ([2]; all dosed, 8/44): 18% | patients with abdominal pain ([2]; all dosed, 11/44): 32% | Serious adverse event (SAE) ([2]; withdrawal period, considered unrelated to study medication): One patient had a lower GI bleed | patients in whom hallucinations and delusions improved or disappeared during treatment [4]: improved or disappeared during treatment in five | patients in whom hallucinations and delusions improved or disappeared during treatment ([4]; listed as aminosterol): improved or disappeared during treatment in five | total sleep time vs baseline [5]: consistently higher than baseline | effect on circadian rhythm of skin temperature [6]: significant positive impact; also recorded: improved all markers of healthy circadian function | effect on circadian rhythm of skin temperature ([6]; listed as Aminosterol): improved all markers of healthy circadian function | improvement of CFI during wash-out ([6]; wash-out period, p=0.004): persisted | improvement of IS during wash-out ([6]; wash-out period, p=0.008): persisted | systemic absorption following oral administration [7]: negligible | systemic absorption following oral administration [8]: negligible | systemic absorption following oral administration [9]: negligible

SMILES: CC(C)[C@@H](CC[C@@H](C)[C@H]1CC[C@H]2[C@@H]3[C@H](O)C[C@H]4C[C@@H](NCCCNCCCCN)CC[C@]4(C)[C@H]3CC[C@]12C)OS(=O)(=O)O [squalamine]
systemic absorption following oral administration [3]: not significantly absorbed into the systemic circulation | gastro-intestinal motility (mouse models of PD): stimulates gastro-intestinal motility | effect on IPANs of the ENS [10]: excitation of IPANs | gastrointestinal motility after intravenous administration [11]: not associated with increased gastrointestinal motility

From US11464789B2, “Aminosterol compositions and methods of using the same for treating schizophrenia” (Enterin, Inc., priority 2018, dated 2022)
